What was measured:
[1] = tested on: dityrosine oligomerization; assay: CuTy: inhibition of dityrosine oligomerization; format: biochemical; details: referenced to in-house standard (set as 100% inhibition)
[2] = Mice plasma concentration after oral dose; format: in vivo; details: for Mice plasma concentration: 30 min to 4 h after single or repeat oral dose of 30 mg/kg
[3] = tested on: M17 human neuroblastoma cells; assay: Cytotoxicity, M17 human neuroblastoma cells; format: cell-based; details: for Cytotox (% viable) M17 cells at 1 μM: 1 μM test compound; for Cytotox (% viable) M17 cells at 10 μM: 10 μM test compound
Procedure: Assay 3. MTS Assay for Cell Viability
Cell viability is determined using the MTS assay. Culture medium is replaced with fresh neurobasal medium plus B27 supplements minus antioxidants. 1/10th volume MTS solution (Cell Titre 96 Aqueous One, Promega Corporation) and incubated at 37° C., 2 hrs. 200 microliter aliquots are measured with a spectrophotometer at 560 nm.

[4] = tested on: primary cortical neuronal cultured cells; assay: Test compound cytotoxicity, MTS assay, primary cortical neuronal cultures; format: cell-based, mouse; details: for Cytotox (% viable) Neuronal cells at 1 μM: 1 μM test compound; for Cytotox (% viable) Neuronal cells at 10 μM: 10 μM test compound
Method in brief: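 Primary cortical neurons were cultured five days in Neurobasal/B27, then exposed on day six to compounds (from 2.5 mM DMSO stocks) in medium minus antioxidants, in triplicate for 4 days at 37° C. Viability was measured by MTS, 2 h at 37° C, absorbance at 560 nm.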

[5] = biological target: T1, Abeta:Zn (25:50 μM) Synthetic Aggregations (Homo sapiens, UniProt P05067); assay: Disaggregation of Abeta:Zn synthetic aggregates (ThT fluorescence); format: biochemical; details: for Disaggregation % Aggregate reduction at 5 μM: 5 μM test compound; for EC50: Abeta:Zn 25:50 μM aggregates
T1 construct: PB Compound Mediated Dissolution of Aggregated Abeta 1-42; purchased Keck Laboratory, Yale University School of Medicine
Method in brief: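 Abeta1-42 (25 μM) with ZnCl2 (50 μM) and ThT (50 μM) in PBS pH 6.6 was preaggregated 24 h at 37 degrees with rotation. Aggregates were then exposed to compound (final 1-50 μM, DMSO) for 2 h at 37 degrees. ThT fluorescence was read at ex 450/em 480 nm.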

[6] = Toxicity, visual observations in mice; details: duration and visual observations
Aβ deposits = details: 9 weeks; for Tg Mice % difference from control in Amyloid plaque abundance / Tg Mice % difference from control in insoluble brain amyloid burden / Tg Mice % difference from control in soluble brain amyloid burden: daily oral gavage 30 mg/kg, 13-14 months old transgenic mice
Aβ 1-42 = biological target: T2, Aβ 1-42 (Homo sapiens, UniProt P05067); assay: Fluorometric H2O2 assay (inhibition of Abeta H2O2 production); format: biochemical; details: concentration required to inhibit 50% of Abeta H2O2 production; read-out: H2O2 IC50
T2 construct: The reaction solutions contained Aβ 1-42 at concentrations
Method in brief: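 Copper-dependent Aβ H2O2 production measured fluorometrically with deacetylated dichlorofluorescein plus HRP in PBS, pH 7.4. Incubation 60 min at 37 C, test compound included in wells. H2O2 quantified against H2O2 standards.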

[7] = tested on: Abeta in extract of post-mortem human AD brain tissue; assay: BAS: human brain amyloid solubilization assay; format: biochemical; details: max effect across the concentration range, referenced to baseline PBS
Method in brief: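 Plaque-bearing post-mortem AD cortex homogenised in ice-cold PBS pH 7.4; soluble Aβ in 100,000×g supernatant, insoluble Aβ from resuspended pellet. Fractions run on Tris-Tricine SDS-PAGE, immunoblotted with W02, densitometry against synthetic Aβ40 standards.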

T1 sequence (P05067 672-713 limits assumed): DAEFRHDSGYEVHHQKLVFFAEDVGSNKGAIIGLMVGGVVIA
T2 sequence (P05067 672-713 limits assumed): as above

Structure (SMILES) | CuTy % inhibition of dityrosine oligomerization [1] | Mice plasma concentration [2] | Cytotox (% viable) M17 cells at 1 μM [3] [%] | Cytotox (% viable) M17 cells at 10 μM [3] [%] | Cytotox (% viable) Neuronal cells at 1 μM [4] [%] | Cytotox (% viable) Neuronal cells at 10 μM [4] [%] | Disaggregation % Aggregate reduction at 5 μM [5] [%] | EC50 [5] [nM] | Toxicity at 30 mg/kg [6] | Tg Mice Amyloid plaque abundance at 3 mg/kg (Aβ deposits; daily oral gavage 3 mg/kg) | Tg Mice soluble brain amyloid burden at 3 mg/kg (Aβ deposits; daily oral gavage 3 mg/kg) | Tg Mice % difference in insoluble brain amyloid burden at 3 mg/kg (Aβ deposits; daily oral gavage 3 mg/kg, ex-outlier) [%] | IC50 (Aβ 1-42) [nM] | Tg Mice % difference from control in Amyloid plaque abundance (Aβ deposits) | Tg Mice % difference from control in insoluble brain amyloid burden (Aβ deposits) | Tg Mice % difference from control in soluble brain amyloid burden (Aβ deposits) | BAS max effect [7] [%] | Mice plasma concentration at 10 mg/kg ([2]; oral dose 10 mg/kg) | Toxicity at 10 mg/kg ([6]; 10 mg/kg)
CCC(C)n1cnc2c(O)c(Cl)cc(Cl)c2c1=O (centres unmarked) [PB 1112] | CuTy: 125% inhibition | Up to 2949 ng/ mL ng/mL | 99.2 | 68.6 | 94 | 67 | 46.4 | > 20000 | 10 days, none | – | – | – | – | – | – | – | – | – | –
CCCc1cnc2c(O)c(I)ccn2c1=O [PB 1151] | – | Up to 11742 ng/ ml ng/mL | 80.8 | 47.6 | – | – | 57 | 5600 | – | No change | No change | −24 | 330 | – | – | – | – | – | –
CCn1c(CN(C)C)nc2c(O)c(Cl)cc(Cl)c2c1=O.Cl [PB 1268] | CuTy: 110% inhibition | Up to 975.9 ng/ml ng/mL | 99.2 | 102.1 | – | – | – | – | 10 days, none | – | – | – | 360 | – | – | – | – | – | –
CCCn1cnc2c(O)c(I)ccc2c1=S [PB 1165] | – | Up tp 1593 ng/ ml ng/mL | 96.7 | 107.1 | – | – | 52 | 4700 | 10 days, none | – | – | – | 890 | Decrease | No change | No change | – | – | –
CCNCc1ccc2c(Cl)cc(Cl)c(O)c2n1.Cl [PB 1051] | – | Up to 403 ng/ mL ng/mL | 78.3 | 44 | 87 | 56 | 22.3 | > 20000 | 10 days, none | – | – | – | 380 | −39% | −21% | slight increase | 270 | – | –
O=c1c2c(Cl)cc(Cl)c(O)c2ncn1CCNCc1ccncc1 [PB 1264] | CuTy: 100% inhibition | Up to 1639.8 ng/mL | 103 | 104.8 | – | – | – | – | 10 days, none | – | – | – | 450 | – | – | – | – | – | –
O=c1c2c(Cl)cc(Cl)c(O)c2ncn1Cc1nc2ccccc2s1 [PB 1257] | CuTy: 60% inhibition | Up to 166.1 ng/ mL ng/mL | 111.1 | 80.9 | – | – | – | – | 10 days, none | – | – | – | 690 | – | – | – | – | – | –
Br.CN(C)Cc1nc2c(O)c(Cl)cc(Cl)c2c(=O)n1C [PB 1269] | CuTy: 110% inhibition | Up to 492.1 ng/ml ng/mL | 109.3 | 114.7 | – | – | – | – | 10 days, 1/4 mild signs | – | – | – | 280 | – | – | – | – | – | –
O=c1c2c(Cl)cc(I)c(O)c2ncn1CC1CC1 [PB 1140] | – | – | 92.4 | 98.2 | – | – | 64 | 3500 | – | – | – | – | 360 | – | – | – | – | At 10 mg/kg: Up to 2315 ng/ ml ng/mL | At 10 mg/kg 10 days, none
Br.CCN(CC)Cc1nc2c(O)c(Cl)cc(Cl)c2c(=O)[nH]1 [PB 1128] | CuTy: 100% inhibition | Up to 2289 ng/ mL ng/mL | 106.5 | 99.1 | 100.6 | 93.7 | 41 | – | 10 days, none | – | – | – | – | – | – | – | – | – | –

Source: patent publication US9163018B2, “Method of treatment of age-related macular degeneration (AMD)” (Prana Biotechnology Limited, priority 2006, dated 2015)
